{
  "source": "PubChem BioAssay AID1259407",
  "about": "(Chemical Carcinogenesis Research Information System (CCRIS), 2018)",
  "system": "CCRIS mutagenicity, Ames/micronucleus/aberration tests",
  "test": "CCRIS mutagenicity studies",
  "key": {"[1]": {"details": "Test System: AMES SALMONELLA TYPHIMURIUM, Strain/Indicator: TA98, Metabolic Activation: RAT, LIVER, S-9, AROCLOR 1254, Method: STANDARD PLATE"}, "[2]": {"details": "Test System: AMES SALMONELLA TYPHIMURIUM, Strain/Indicator: TA100, Metabolic Activation: NONE, Method: STANDARD PLATE"}},
  "note": "The source made the active and inactive calls. How the calls were made is not given here.",
  "data": [
    {"smiles": "COc1cc(N=Nc2ccccc2)ccc1N", "values": [
      {"measurement": "mutagenic call", "setting": "Test System: AMES SALMONELLA TYPHIMURIUM, Strain/Indicator: TA98, Metabolic Activation: RAT LIVER, CYTOSOL, AROCLOR 1254, Method: PREINCUBATION", "value": "inactive; negative"},
      {"measurement": "mutagenic call", "setting": "Test System: AMES SALMONELLA TYPHIMURIUM, Strain/Indicator: TA98, Metabolic Activation: RAT LIVER, MICROSOMES, AROCLOR 1254, Method: PREINCUBATION", "value": "active; positive"},
      {"measurement": "mutagenic call", "setting": "Test System: AMES SALMONELLA TYPHIMURIUM, Strain/Indicator: TA98, Metabolic Activation: RAT, LIVER, MICROSOMES, 3-METHOXY-4-AMINOAZOBENZENE, Method: PREINCUBATION", "value": "inactive; negative"},
      {"measurement": "mutagenic call", "setting": "Test System: AMES SALMONELLA TYPHIMURIUM, Strain/Indicator: TA98, Metabolic Activation: RAT, LIVER, MICROSOMES, AROCLOR 1254, Method: PREINCUBATION", "value": "active; positive"},
      {"measurement": "mutagenic call", "setting": "Test System: AMES SALMONELLA TYPHIMURIUM, Strain/Indicator: TA98, Metabolic Activation: RAT, LIVER, MICROSOMES, Method: PREINCUBATION", "value": "inactive; negative"},
      {"measurement": "mutagenic call", "setting": "[1]", "value": "active; positive"},
      {"measurement": "mutagenic call", "setting": "Test System: AMES SALMONELLA TYPHIMURIUM, Strain/Indicator: TA98, Metabolic Activation: RAT, LIVER, S-9, KC500 OR PHENOBARBITAL, Method: LIQUID SUSPENSION", "value": "active; positive"},
      {"measurement": "mutagenic call", "setting": "Test System: AMES SALMONELLA TYPHIMURIUM, Strain/Indicator: TA100, Metabolic Activation: RAT, LIVER, S-9, KC500 OR PHENOBARBITAL, Method: LIQUID SUSPENSION", "value": "active; positive"},
      {"measurement": "mutagenic call", "setting": "Test System: AMES SALMONELLA TYPHIMURIUM, Strain/Indicator: TA1538, Metabolic Activation: RAT, LIVER, S-9, AROCLOR 1254, Method: STANDARD PLATE", "value": "active; positive"}
    ]},
    {"smiles": "CCN(CC)c1ccc(C(=C2C=CC(=[N+](CC)CC)C=C2)c2ccccc2)cc1", "values": [
      {"measurement": "mutagenic call", "setting": "Test System: AMES SALMONELLA TYPHIMURIUM, Strain/Indicator: TA100, Method: PREINCUBATION", "value": "active; positive"}
    ]},
    {"smiles": "Cc1cc2ccccc2c2ccc3c(c12)[C@@H]1O[C@@H]1[C@H](O)[C@H]3O", "values": [
      {"measurement": "mutagenic call", "setting": "Test System: AMES SALMONELLA TYPHIMURIUM, Strain/Indicator: TA100, Metabolic Activation: NONE, Method: PREINCUBATION", "value": "active; positive"},
      {"measurement": "mutagenic call", "setting": "[2]", "value": "active; positive"}
    ]},
    {"smiles": "COc1cc(N=Nc2ncc([N+](=O)[O-])s2)c(NC(C)=O)cc1N(CCOC(=O)OCC(C)C)CCOC(=O)OCC(C)C", "values": [
      {"measurement": "mutagenic call", "setting": "End Point: IN VITRO CHROMOSOMAL ABERRATIONS, Test System: CHL CELLS, Metabolic Activation: RAT, LIVER, S-9, SODIUM PHENOBARBITAL AND 5,6-BENZOFLAVONE", "value": "active; positive (ploidy changes)"}
    ]},
    {"smiles": "O=Cc1c2ccccc2cc2ccccc12", "values": [
      {"measurement": "mutagenic call", "setting": "[1]", "value": "inactive; negative"},
      {"measurement": "mutagenic call", "setting": "[2]", "value": "inactive; negative"},
      {"measurement": "mutagenic call", "setting": "Test System: AMES SALMONELLA TYPHIMURIUM, Strain/Indicator: TA100, Metabolic Activation: RAT, LIVER, S-9, AROCLOR 1254, Method: STANDARD PLATE", "value": "inactive; negative"}
    ]},
    {"smiles": "CC(C)C#N", "values": [
      {"measurement": "mutagenic call", "setting": "End Point: In vitro chromosomal aberrations, Test System: Chinese hamster lung (CHL/IU) cells, Metabolic Activation: Rat, Liver, S9, Phenobarbital and 5,6-benzoflavone", "value": "inactive; negative"},
      {"measurement": "mutagenic call", "setting": "Test System: Ames Salmonella typhimurium, Strain/Indicator: TA100, Metabolic Activation: None, Method: Preincubation", "value": "active; positive"},
      {"measurement": "mutagenic call", "setting": "Test System: Ames Salmonella typhimurium, Strain/Indicator: TA100, Metabolic Activation: Rat, Liver, S9, Sodium phenobarbital and 5,6-benzoflavone (10%), Method: Preincubation", "value": "active; positive"},
      {"measurement": "mutagenic call", "setting": "Test System: Ames Salmonella typhimurium, Strain/Indicator: TA1535, Metabolic Activation: None, Method: Preincubation", "value": "inactive; negative"},
      {"measurement": "mutagenic call", "setting": "Test System: Ames Salmonella typhimurium, Strain/Indicator: TA1537, Metabolic Activation: None, Method: Preincubation", "value": "active; positive"},
      {"measurement": "mutagenic call", "setting": "Test System: E. coli, Strain/Indicator: WP2uvrA/pKM101, Metabolic Activation: None, Method: Preincubation", "value": "active; positive"},
      {"measurement": "mutagenic call", "setting": "Test System: E. coli, Strain/Indicator: WP2uvrA/pKM101, Metabolic Activation: Rat, Liver, S9, Sodium phenobarbital and 5,6-benzoflavone (10%), Method: Preincubation", "value": "active; positive"}
    ]},
    {"smiles": "O=S(=O)(O)C1C(O)c2c(cc3ccc4cccc5ccc2c3c45)C(O)C1O", "note": "(centres undefined)", "values": [
      {"measurement": "mutagenic call", "setting": "Test System: AMES SALMONELLA TYPHIMURIUM, Strain/Indicator: TA98, Metabolic Activation: NONE, Method: PREINCUBATION", "value": "inactive; negative"}
    ]}
  ]
}
